Like-named read-outs stand apart in the source and are kept apart here. Peptide text beside a SMILES is read from it.
Legend:
V. vulnificus = assay type: cell-based, Vibrio vulnificus
Description: To understand the effects of pH on TP3 or TP4, the reagents were dissolved in ddH2O, 1 M HCl or 1 M NaOH to obtain solutions with different pH values. For the temperature-dependent functional study, the TP3 or TP4 was added to a solution in a water bath (Basic life, model BL3002, Taiwan) and incubated for 60 minutes at different temperatures (40, 60, 80, or 100°C). To evaluate the effects of TP3 and TP4 on pepsin and trypsin function, each peptide was incubated for 10 or 30 minutes with different concentrations of pepsin or trypsin (0.1, 1, or 10 μg/ml), and we determined the MIC values after incubating these solutions with cells at 28°C for 720 minutes, according to a previously described MIC experimental protocol.

tilapia = experiment: Toxicity of peptide alone, tilapia survival; assay type: in vivo, tilapia (Oreochromis spp.); conditions: abdominal cavity, no infection, seven days (S2 Fig)
Description: The antimicrobial activities of TP3 and TP4 peptides were analyzed in tilapia infected with lethal amounts of bacteria. Different amounts of V. vulnificus were injected into the abdominal cavities of the fish, and survival rates were recorded as cumulative percentages (S1 Fig). To determine whether TP3 and TP4 had any toxic effects on the tilapia, we injected different doses of TP3 and TP4 (0.1, 1, 10, 20, 30, 40, or 50 μg/fish) into the abdominal cavity and recorded the cumulative survival percentage of the fish (S2 Fig). We also co-treated tilapia with different doses (0.1, 1, 10, 20 μg/fish) of TP3 or TP4 combined with 2x10^4 CFU of V. vulnificus to evaluate tilapia survival following treatment. […] After 14, 21, or 28 days following the first co-treatment with TP3, the tilapia that survived in the 20 μg/fish TP3 experimental group were injected with a second dose of 2x10^4 CFU of V. vulnificus, and the survival rates were measured for another seven days. […] In the co-treatment experiments, at 14, 21, or 28 days after the first co-treatment with TP4, the surviving tilapia in the 20 μg/fish TP4 experimental group received a second injection of 2x10^4 CFU of V. vulnificus, and the survival rates were measured for another seven days.
Supplementary file pone.0169678.s002.pdf: S2 Fig Determination of tilapia survival rates seven days after injection with different concentrations of TP3 or TP4. (a) The survival rates of tilapia injected with TP3 at a dose of 0.1 μg/fish, 1 μg/fish, or 10 μg/fish. (b) The percentage of tilapia surviving after injection with TP4 at 0.1 μg/fish, 1 μg/fish, or 10 μg/fish. (c) The percentage of tilapia surviving after injection with TP3 at 20 μg/fish, 30 μg/fish, 40 μg/fish, or 50 μg/fish. (d) The percentage of tilapia surviving after injection with TP4 at 20 μg/fish, 30 μg/fish, 40 μg/fish, or 50 μg/fish. The control group (control) was injected with PBS alone. (PDF) Click here for additional data file.

in vivo = experiment: in vivo; set-up: species or system tilapia (Oreochromis hybrids, Tilapia spp.); conditions: iv, 0.2 mg/kg
Description: The peptide half-life of TP3 and TP4 were investigated in male tilapia (Oreochromis hybrids, Tilapia spp., with a mean body length of 32.33±1.5 cm and a mean body weight of 1117±78.2 g) after intravenous administration of a single dose of 0.2 mg/kg of peptide. The TP3 and TP4 concentrations in serum samples were determined at 10, 30, 60, 120, 180, 240, 300, and 360 minutes for TP3 and at 10, 60, 120, 180, 240, 300, and 360 minutes after dosing for TP4. At each sample collection time point, we anesthetized three fish and collected their blood. The blood was centrifuged to obtain fish serum, which was assessed by liquid chromatography-mass spectrometry/mass spectrometry (LC-MS/MS) at Mission Biotech (Taipei, Taiwan).

With `CC[C@H](C)[C@H](NC(=O)[C@H](C)NC(=O)[C@H](CCCCN)NC(=O)CNC(=O)[C@H](C)NC(=O)[C@H](CO)NC(=O)[C@H](Cc1ccccc1)NC(=O)[C@H](CC(C)C)NC(=O)CNC(=O)CNC(=O)[C@@H](NC(=O)[C@@H](NC(=O)[C@H](Cc1c[nH]cn1)NC(=O)[C@H](Cc1c[nH]cn1)NC(=O)[C@@H](NC(=O)[C@@H](N)Cc1ccccc1)[C@@H](C)CC)[C@@H](C)CC)[C@@H](C)CC)C(=O)N[C@@H](Cc1c[nH]cn1)C(=O)N[C@@H](CCCNC(=N)N)C(=O)N[C@@H](CC(C)C)C(=O)N[C@H](C(=O)N[C@@H](CCCNC(=N)N)C(=O)N[C@@H](CCCNC(=N)N)C(=O)N[C@@H](CCCNC(=N)N)C(=O)N[C@@H](CCCNC(=N)N)C(=O)N[C@@H](CCCNC(=N)N)C(=O)O)[C@@H](C)CC` [TP4, tilapia piscidin 4] (H-FIHHIIGGLFSAGKAIHRLIRRRRR-OH) the “decrease of antimicrobial activity” value (V. vulnificus; pepsin 0.1 μg/ml, 30 minutes) was “eight-fold”, the “decrease of antimicrobial activity” value (V. vulnificus; pepsin 1 μg/ml, 10 minutes) was “two-fold” and the “decrease of antimicrobial activity” value (V. vulnificus; trypsin 1 μg/ml, 10 minutes) was “two-fold”. For the same compound, the “decrease of antimicrobial activity” value (V. vulnificus; trypsin 1 μg/ml, 30 minutes) was “four-fold” and the “decrease of antimicrobial activity” value (V. vulnificus; trypsin 10 μg/ml, 10 minutes) was “eight-fold”.

For `CC[C@H](C)[C@H](NC(=O)[C@H](CC(C)C)NC(=O)[C@H](CO)NC(=O)[C@H](Cc1c[nH]cn1)NC(=O)[C@@H](NC(=O)[C@H](Cc1c[nH]cn1)NC(=O)[C@H](CCCCN)NC(=O)CNC(=O)[C@@H](NC(=O)[C@H](CO)NC(=O)[C@H](Cc1ccccc1)NC(=O)[C@H](CC(C)C)NC(=O)CNC(=O)CNC(=O)[C@@H](NC(=O)[C@@H](NC(=O)[C@H](Cc1c[nH]cn1)NC(=O)[C@H](Cc1c[nH]cn1)NC(=O)[C@@H](NC(=O)[C@@H](N)Cc1ccccc1)[C@@H](C)CC)[C@@H](C)CC)[C@@H](C)CC)C(C)C)[C@@H](C)CC)C(=O)N[C@@H](Cc1c[nH]cn1)C(=O)NCC(=O)N[C@@H](Cc1c[nH]cn1)C(=O)O` [TP3, tilapia piscidin 3] (H-FIHHIIGGLFSVGKHIHSLIHGH-OH), the “percent survival after injection of peptide only” value (shortened to “percent survival after injection”) (tilapia; 20 μg/fish) was 86.7%, the “percent survival after injection” value (tilapia; 30 μg/fish) was 73.3% and the “percent survival after injection” value (tilapia; 40 μg/fish) was 66.7%. For the same compound, the “percent survival after injection” value (tilapia; 50 μg/fish) was 56.7% and the “half-life of the injected peptide in tilapia serum” value (in vivo) was 120 to 180 min.

Reference: paper PMC5234776, “Study of the Antimicrobial Activity of Tilapia Piscidin 3 (TP3) and TP4 and Their Effects on Immune Functions in Hybrid Tilapia (Oreochromis spp.)” (PLoS ONE, 2017)
